US20210260101A1, “POTENTIATED ANTIBIOTIC COMPOSITIONS AND METHODS OF USE FOR TREATING BACTERIAL INFECTIONS AND BIOFILMS” (priority 2018, published 2021)
Entries after “also recorded” stand apart in the source; their conditions may differ.

Columns and labels:
[1] = system: P. aeruginosa BAA-47 cells; assay: NPN accumulation assay; format: cell-based, Pseudomonas aeruginosa; conditions: 64 μg/mL polymyxin-B; 64 and 128 μg/mL BPEI600; ~6×10^9 CFU/ml
Procedure: Overnight culture of P. aeruginosa BAA-47 was used to inoculate fresh CAMHB media for another 5 hr at 35° C. with shaking. Bacterial cells were collected by centrifugation at 6000 rpm for 40 min and resuspended in PBS. The OD600 of the cell suspension was adjusted to ˜1.0 and kept at room temperature during the experiment. Aliquots (180 μL/well) of the cell suspension were transferred to a 96-well flat-bottom black plate in the format of column 1, PBS blank; column 2, untreated control cells BAA-47; column 3, cells BAA-47+BPEI (sub-lethal concentration). Five technical replicates of each group were conducted. Fluorescent probes Hoechst 33342 bisbenzimide (H33342) or 1-N-phenylnaphthylamine (NPN) was added (20 μL) to each well with a final concentration of 5 μM. Fluorescence was read immediately after the addition of H33342 or NPN by a Tecan Infinite M20 plate reader with the excitation and emission filters of 355 and 460 nm for H33342 or 350 and 420 nm for NPN, respectively. Fluorescence data were normalized to the emission before cells were added in the PBS control, and they were plotted against time to show the cellular uptake of H33342 or NPN over 10 min.

[2] = system: P. aeruginosa BAA-47 cells; assay: Resazurin cell viability assay; format: cell-based, Pseudomonas aeruginosa; conditions: 64 μg/mL
Procedure: All fluorescence studies used a cell density of ˜6×10^9 CFU/mL, while checkerboard assays only inoculated a cell density of 5×10^5 CFU/mL. Therefore, an amount of 128 μg/mL BPEI for fluorescence assays is considered sub-lethal, which is tested and confirmed by resazurin assays. The reduction of resazurin to resorufin occurs via cellular metabolism and thus is an excellent reporter of cell viability. […] First, the cells in the fluorescence assays are viable and thus drug influx and efflux processes control the intracellular concentration rather than widespread disruption of outer membrane that leads to cell lysis.

[3] = system: MRSA OU6 biofilms; assay: Biofilm disrupting assay (crystal violet), MRSA OU6; format: cell-based, Staphylococcus aureus; conditions: 64 and 128 μg/mL, 20 hr
Procedure: This experiment was conducted in parallel with polymyxin B (PmB, a cationic polypeptide antibiotic) and BPEI600. In short, an overnight MRSA OU 6 culture was inoculated in a tissue-culture treated 96-well plate (100 μL of tryptic soy broth or TSB/well) with an inoculation size of 1 μL/well (˜5×10^5 CFU/mL). The plate was incubated at 35° C. for 24 hr to allow the bacteria to form biofilm. It was then washed with water to remove planktonic bacteria and stained with 100 μL of crystal violet solution (0.1%) per well for 15 min. The stained plate was washed excessively with water 5 times to remove any unbound stain and air-dried overnight. […] A negative control (water only) and positive control (30% acetic acid) were also conducted at the same time of treatment. After 20 hr, without touching the biofilm layer in the bottom of the plate, solubilized solution in each treated well was carefully transferred to a new 96-well plate for an OD550 measurement, which represents the corresponding amount of biofilm disrupted by each treatment.

With polymyxin B the “fold increase in NPN fluorescence intensity” value [1] was 2.7 fold, the “cell viability (resazurin)” value [2] was “near background levels; also recorded: lethal” and the “biofilm dispersal (crystal violet)” value [3] was “slight dissolution in biomass”.
